The values that follow come from article PMC5214803 (Scientific Reports, 2017).

The experiment concerns the target T1, Apc holoenzyme (Apc core complex plus Apcε) (Aromatoleum aromaticum, UniProt Q5P5G2+Q5P5G4).
T1 construct: gene apc3
As to conditions: ATP sites in Apcα and Apcα′ inferred from structure.

T1 sequence (Q5P5G4 2-732): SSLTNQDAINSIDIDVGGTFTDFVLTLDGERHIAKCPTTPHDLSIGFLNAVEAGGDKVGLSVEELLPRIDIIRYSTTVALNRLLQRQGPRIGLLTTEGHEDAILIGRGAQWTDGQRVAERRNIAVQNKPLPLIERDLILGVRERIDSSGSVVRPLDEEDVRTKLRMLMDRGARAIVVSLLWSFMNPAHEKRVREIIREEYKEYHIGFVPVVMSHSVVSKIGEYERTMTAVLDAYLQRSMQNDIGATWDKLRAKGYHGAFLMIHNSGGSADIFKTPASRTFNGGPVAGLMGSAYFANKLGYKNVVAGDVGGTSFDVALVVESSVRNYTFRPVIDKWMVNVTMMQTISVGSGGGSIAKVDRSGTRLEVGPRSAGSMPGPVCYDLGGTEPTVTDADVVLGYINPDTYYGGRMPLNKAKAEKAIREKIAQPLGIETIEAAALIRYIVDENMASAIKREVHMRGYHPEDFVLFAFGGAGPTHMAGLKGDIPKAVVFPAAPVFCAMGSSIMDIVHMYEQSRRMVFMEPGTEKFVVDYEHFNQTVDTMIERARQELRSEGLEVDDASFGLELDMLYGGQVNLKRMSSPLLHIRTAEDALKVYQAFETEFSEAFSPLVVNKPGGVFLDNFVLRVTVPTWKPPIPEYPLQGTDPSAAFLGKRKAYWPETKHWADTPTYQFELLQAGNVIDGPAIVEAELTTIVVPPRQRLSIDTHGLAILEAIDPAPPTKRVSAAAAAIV
T1 sequence (Q5P5G2 whole entry): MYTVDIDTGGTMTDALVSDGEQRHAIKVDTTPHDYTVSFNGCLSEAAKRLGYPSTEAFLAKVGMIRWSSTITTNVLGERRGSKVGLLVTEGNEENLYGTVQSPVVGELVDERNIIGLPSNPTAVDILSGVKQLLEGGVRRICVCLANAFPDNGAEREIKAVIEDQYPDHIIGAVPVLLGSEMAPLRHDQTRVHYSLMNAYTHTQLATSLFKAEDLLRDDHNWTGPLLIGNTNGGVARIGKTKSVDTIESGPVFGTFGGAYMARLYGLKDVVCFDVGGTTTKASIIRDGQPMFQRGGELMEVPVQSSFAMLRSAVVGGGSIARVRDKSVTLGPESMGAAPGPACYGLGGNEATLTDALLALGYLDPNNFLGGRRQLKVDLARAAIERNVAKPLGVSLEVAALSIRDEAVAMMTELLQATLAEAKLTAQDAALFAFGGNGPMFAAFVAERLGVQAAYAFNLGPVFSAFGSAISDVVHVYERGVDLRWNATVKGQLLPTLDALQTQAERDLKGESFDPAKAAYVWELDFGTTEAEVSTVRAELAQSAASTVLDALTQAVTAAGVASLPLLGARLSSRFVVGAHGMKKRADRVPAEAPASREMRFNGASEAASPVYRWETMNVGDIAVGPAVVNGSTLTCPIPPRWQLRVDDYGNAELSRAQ
T1 sequence (Q5P5G5 2-684 partner): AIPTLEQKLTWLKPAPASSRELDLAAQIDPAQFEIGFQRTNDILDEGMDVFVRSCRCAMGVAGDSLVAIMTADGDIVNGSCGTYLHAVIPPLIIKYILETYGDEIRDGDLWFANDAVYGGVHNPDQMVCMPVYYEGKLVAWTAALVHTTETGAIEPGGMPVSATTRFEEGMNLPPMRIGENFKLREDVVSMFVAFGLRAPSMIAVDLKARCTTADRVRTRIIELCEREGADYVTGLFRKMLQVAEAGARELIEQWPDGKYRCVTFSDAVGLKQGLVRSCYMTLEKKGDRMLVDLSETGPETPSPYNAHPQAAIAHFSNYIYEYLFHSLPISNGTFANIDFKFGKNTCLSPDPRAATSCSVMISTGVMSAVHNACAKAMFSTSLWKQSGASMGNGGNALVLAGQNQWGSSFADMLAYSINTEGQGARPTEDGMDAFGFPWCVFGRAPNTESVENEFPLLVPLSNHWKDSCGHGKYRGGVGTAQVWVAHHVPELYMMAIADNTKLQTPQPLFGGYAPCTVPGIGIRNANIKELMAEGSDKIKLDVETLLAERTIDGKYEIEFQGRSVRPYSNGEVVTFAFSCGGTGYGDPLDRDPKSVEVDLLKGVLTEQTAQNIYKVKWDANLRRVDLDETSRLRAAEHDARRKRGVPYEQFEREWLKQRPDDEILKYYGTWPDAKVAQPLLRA
T1 sequence (Q5P5G3 whole entry partner): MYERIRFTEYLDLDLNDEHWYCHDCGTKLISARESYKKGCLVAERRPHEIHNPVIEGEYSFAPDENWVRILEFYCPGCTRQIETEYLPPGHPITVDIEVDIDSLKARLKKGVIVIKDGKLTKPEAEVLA
T1 sequence (Q5P5G6 whole entry partner): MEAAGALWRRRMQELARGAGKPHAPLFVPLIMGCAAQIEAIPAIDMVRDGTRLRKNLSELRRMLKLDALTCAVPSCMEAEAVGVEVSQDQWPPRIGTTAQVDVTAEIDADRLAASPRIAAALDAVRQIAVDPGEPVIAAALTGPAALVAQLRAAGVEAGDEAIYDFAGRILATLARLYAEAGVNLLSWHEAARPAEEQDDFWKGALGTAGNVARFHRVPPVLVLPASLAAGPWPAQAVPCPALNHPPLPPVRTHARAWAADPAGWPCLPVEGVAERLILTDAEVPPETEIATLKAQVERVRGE

With `Nc1ncnc2c1ncn2[C@@H]1O[C@H](COP(=O)(O)OP(=O)(O)OP(=O)(O)O)[C@@H](O)[C@H]1O` [ATP], the ATPase activity assay entry was “confirmed by determination of the ATPase activity and carboxylation of acetophenone”.
